Data from US4356165A, “Bupropion radioimmunoassay, and kit” (Burroughs Wellcome Co., priority 1980, dated 1982).

Tested on: antisera raised by presenting a suitable bupropion variant-carrier material conjugate
Assay: Competition of bupropion with radiolabeled bupropion or competitor for binding to antisera
Experimental: Samples of six standard solutions of bupropion in blank plasma having concentrations of 0.39 to 50 ng/ml) are pipetted (0.1 ml each) in duplicate into 12×75 mm plastic tubes. Duplicate non-specific binding (no antibody) and maximum binding tubes (no unlabeled bupropion) receive 0.1 ml blank plasma. Spiked plasma controls at several concentrations of (e.g., 1.0, 10.0, and 100 ng/ml) and plasma samples for assay (diluted into the standard range with blank plasma if necessary) are assayed in duplicate. After being placed in an ice bath, all tubes receive (in order) 0.2 ml ^3 H bupropion (416 pg. containing approximately 10^4 cpm) and 0.7 ml anti-bupropion serum (raised to a ring-functionalized immunogen according to the present invention) (at pre-determined dilutions such that approximately 40% of the ^3 H bupropion added is bound), both in assay buffer (0.05 M phosphate-bufferedisotonic saline, containing 0.01 M EDTA and 0.1% gelatin, pH 7.0). […] The supernatants, containing antibody-bound ^3 H bupropion are carefully decanted into liquid scintillation cocktail for quantitation of ^3 H. After counts (minus average non-specific binding cpm) are expressed as percentages of average maximum binding cpm, bupropion concentrations in plasma samples and spiked controls are read from a standard curve (log concentration vs percent average maximum binding).

**Q.** `CC(NC(C)(C)C)C(=O)c1cccc(Cl)c1` (racemic) [bupropion, (±)-2-tert-butylamino-3'-chloropropiophenone] was tested. Which “competition with radiolabeled bupropion or radiolabeled competitor for binding to antisera” value did it give?
**A.** successfully compete
